According to BindingDB's records for doi:10.1002/cbic.201402579 (2015):

Biological target: Cyclin-dependent kinase 2 (Homo sapiens, UniProt P24941)
Test: Protein Kinase Assay
Details: pH 7.5; 30 °C
Experimental: We incubated human recombinant CDK2/cyclin A with small molecules at the indicatedconcentrations in buffer A (Tris HCl (25 mm, pH 7.5), MgCl2 (10 mm), EGTA (1 mm), DTT (1 mm), heparin ([…])) containing histone H1 (1 mg/mL), […] and [g-33P]ATP (15 mm, 3,000 Cimmol^-1; 10 mCi/mL) in a […]. After 30 min incubation at 30 C , we stopped the reaction by using a MicroBeta FilterMate-96 Harvester and P81 phosphocellulose papers , which we washed in phosphoric acid (1 %). We added scintillation fluid, and we measured the radioactivity in a counter with microplate robotic stackers. We calculated kinase activity as picomoles of phosphate incorporated during the 30 min incubation. We evaluated percentage kinase activity as the amount compared to that measured in the absence of inhibitors.

| SMILES | Kd |
| --- | --- |
| NNc1ncnc2sc3c(c12)CCCC3 [4-hydrazino-5,6,7,8-tetrahydro[1]benzothieno[2,3-d]pyrimidine (A)] | 28.3 µM |
| NNc1ncnc2sc3c(c12)CCCCC3 [4-hydrazino-6,7,8,9-tetrahydro-5H-cyclohepta[4,5]thieno[2,3-d]pyrimidine (A1)] | 32.5 µM |
| NNc1ncnc2sc3c(c12)CCC3 [7,8-dihydro-6H-cyclopenta[4,5]thieno[1,2-c]pyrimidin-1-yldiazane] | 287 µM |

Continued, values first:

| Kd | SMILES |
| --- | --- |
| 17.8 µM | CC(=O)OCc1cc(O)c2c(c1)C(=O)c1cccc(O)c1C2=O [11-O-acetyl-aloe-emodin] |
| 9.6 µM | O=C(O)c1cc(O)c2c(c1)C(=O)c1cccc(O)c1C2=O [RHEIN] |
